From US20260125375A1 (Pfizer Inc., priority 2022, published 2026)
Like-named read-outs stand apart in the source and are kept apart here.

What was measured:
[1] = molecular target: T1, CBL-B (residues 36-427) (Homo sapiens, UniProt Q13191); test: Ligand Displacement Assay (LDA), HTRF competitive binding against BODIPY-labeled fluorescent tracer, CBL-B; settings: geometric mean of the number of tests, read-out: CBL-B Ki (nM) GMean
T1 construct: Purified CBL-B (residues 36-427) and C-CBL (residues 46-435) proteins from baculovirus-infected insect cells; made in house; host or cells: baculovirus-infected insect cells
Method in brief: (§1)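 Terbium-streptavidin donor on BirA-biotinylated, AviTagged protein from baculovirus-infected insect cells; BODIPY tracer as acceptor. Compound titrations were three-fold and duplicated, […] with 2% DMSO final.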

[2] = molecular target: T2, C-CBL (residues 46-435) (Homo sapiens, UniProt P22681); test: Ligand Displacement Assay (LDA), HTRF competitive binding against BODIPY-labeled fluorescent tracer, C-CBL; settings: geometric mean of the number of tests, read-out: C-CBL Ki (nM) GMean
T2 construct: Purified CBL-B (residues 36-427) and C-CBL (residues 46-435) proteins from baculovirus-infected insect cells; made in house; host or cells: baculovirus-infected insect cells
T2 sequence (P22681 46-435): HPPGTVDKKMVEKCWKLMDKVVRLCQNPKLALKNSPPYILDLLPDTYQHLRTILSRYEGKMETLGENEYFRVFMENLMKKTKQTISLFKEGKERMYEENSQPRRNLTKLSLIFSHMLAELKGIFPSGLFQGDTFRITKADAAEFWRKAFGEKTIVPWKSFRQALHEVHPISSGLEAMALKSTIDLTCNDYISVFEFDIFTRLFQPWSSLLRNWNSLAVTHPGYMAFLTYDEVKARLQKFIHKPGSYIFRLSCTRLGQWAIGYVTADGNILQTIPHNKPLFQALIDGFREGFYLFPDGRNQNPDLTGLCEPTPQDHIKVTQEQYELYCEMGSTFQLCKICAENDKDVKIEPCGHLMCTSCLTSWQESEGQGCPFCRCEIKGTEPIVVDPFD
Method in brief: as §1

[3] = molecular target: T3, CBL-B (Homo sapiens, UniProt Q13191); test: Jurkat HiBit-IL2 assay (c-CBL KO), reporter cell line expressing CBL-B only; format: cell-based; settings: geometric mean, read-out: C-CBL KO EC50 (nM) GMean
T3 construct: endogenous in cells; host or cells: Jurkat HiBit-IL2 reporter cells, C-CBL knocked out by CRISPR
Method in brief: (§2)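 CRISPR knockout Jurkat HiBit-IL2 reporter cells (20,000/well) were preincubated 1 h with compounds (0.1% DMSO), then stimulated 4 h at 37 °C with anti-CD3 (1 μg/ml) and anti-CD28 (2 μg/ml) final. IL-2 was read by HiBiT lytic luminescence, normalized as fold over antibody-only baseline; EC50 reported as geometric mean.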

[4] = molecular target: T4, C-CBL (Homo sapiens, UniProt P22681); test: Jurkat HiBit-IL2 assay (CBL-B KO), reporter cell line expressing C-CBL only; format: cell-based; settings: geometric mean, read-out: CBL-B KO EC50 (nM) GMean
T4 construct: endogenous in cells; host or cells: Jurkat HiBit-IL2 reporter cells, CBL-B knocked out by CRISPR
Method in brief: as §2

[5] = C-CBL KO (expressing CBL-B only), Table 16b (further repetition)
[6] = CBL-B KO (expressing C-CBL only), Table 16b (further repetition)
[7] = c-CBL KO (CBL-B only), anti-CD3/anti-CD28 stimulation 4 hours, Table 16a
[8] = CBL-B KO (C-CBL only), anti-CD3/anti-CD28 stimulation 4 hours, Table 16a

Row | SMILES | Ki [1] [nM] | Ki [2] [nM] | EC50 [3, 5] [nM] | EC50 [4, 6] [nM] | EC50 [3, 7] [nM] | EC50 [4, 8] [nM]
1 | C[C@@H](c1nc(C(F)(F)F)cc2c(-c3cccc([C@H](c4nncn4C)C4CCC4)c3)n[nH]c12)N1CC[C@@H](O)C1 (single isomer, unassigned) [Example D68] | 15.2 | 134 | 293 | 1710 |  | 
2 | C[C@H](c1nc(C(F)(F)F)cc2c(-c3cccc([C@H](c4nncn4C)C4CCC4)c3)n[nH]c12)N1CC[C@@H](O)C1 (single isomer, unassigned) [Example D69] | 9.3 | 54.3 | 154 | 490 |  | 
3 | C[C@@H](c1nc(C(F)(F)F)cc2c(-c3cccc([C@H](c4nncn4C)C4CCC4)c3)n[nH]c12)N1CC[C@H](O)C1 (single isomer, unassigned) [Example D70] | 7.1 | 48.4 | 163 | 618 |  | 
4 | C[C@@H](c1nc(C(F)(F)F)cc2c(-c3cccc([C@H](c4nncn4C)C4CCC4)c3)n[nH]c12)N1CC[C@H](O)C1 (single isomer, unassigned) [Example D71] | 1.3 | 13 | 77 | 434 |  | 
5 | C[C@H](NC1(CO)CCC1)c1nc(C(F)(F)F)cc2c(-c3cccc([C@H](c4nncn4C)C4CCC4)c3)n[nH]c12 (single isomer, unassigned) [Example D72] | 8.7 | 116 | 103 | 563 |  | 
6 | C[C@@H](NC1(CO)CCC1)c1nc(C(F)(F)F)cc2c(-c3cccc([C@H](c4nncn4C)C4CCC4)c3)n[nH]c12 (single isomer, unassigned) [Example D73] | 12.1 | 157 | 118 | 639 |  | 
7 | CCC(CC)(CO)N[C@@H](C)c1nc(C(F)(F)F)cc2c(-c3cccc([C@H](c4nncn4C)C4CCC4)c3)n[nH]c12 (single isomer, unassigned) [Example D74] | 31.5 | 366 | 639 | 3400 |  | 
8 | CCC(CC)(CO)N[C@H](C)c1nc(C(F)(F)F)cc2c(-c3cccc([C@H](c4nncn4C)C4CCC4)c3)n[nH]c12 (single isomer, unassigned) [Example D75] | 11 | 128 | 195 | 1030 |  | 
9 | CC[C@H](c1cccc(-c2n[nH]c3c([C@H](C)NC[C@H](C)O)nc(C(F)(F)F)cc23)c1)c1nncn1C (single isomer, unassigned) [Example D76] | 0.7 | 2.9 | 20 | 39 |  | 
10 | CC[C@H](c1cccc(-c2n[nH]c3c([C@@H](C)NC[C@H](C)O)nc(C(F)(F)F)cc23)c1)c1nncn1C (single isomer, unassigned) [Example D77] | 0.8 | 4.5 | 33 | 93 |  | 
11 | CC(O)CNC(C)c1nc(C2CC2)cc2c(-c3cccc(C(c4nncn4C)C4CCC4)c3)n[nH]c12 (single isomer, unassigned) [Example H1] | 4.3 | 48.4 | 103 | 485 | 44 | 559
12 | CC(O)CNC(C)c1nc(C2CC2)cc2c(-c3cccc(C(c4nncn4C)C4CCC4)c3)n[nH]c12 (single isomer, unassigned) [Example H2] | 1.4 | 18.3 | 41 | 165 | 17 | 232
13 | CC(NC1CCC1)c1nc(C2CC2)cc2c(-c3cccc(C4(Cc5nncn5C)COC4)c3)n[nH]c12 (single isomer, unassigned) [Example H3, N-{(1ξ)-1-[5-cyclopropyl-3-(3-{3-[(4-methyl-4H-1,2,4-triazol-3-yl)methyl]oxetan-3-yl}phenyl)-1H-pyrazolo[3,4-c]pyridin-7-yl]ethyl}cyclobutanamine] | 8.1 | 28.8 | 231 | 415 | 49 | 392
14 | CC(NC1CCC1)c1nc(C2CC2)cc2c(-c3cccc(C4(Cc5nncn5C)COC4)c3)n[nH]c12 (single isomer, unassigned) [Example H4, N-{(1ξ)-1-[5-cyclopropyl-3-(3-{3-[(4-methyl-4H-1,2,4-triazol-3-yl)methyl]oxetan-3-yl}phenyl)-1H-pyrazolo[3,4-c]pyridin-7-yl]ethyl}cyclobutanamine] | 1 | 4.5 | 11 | 28 | 5 | 43
15 | CC(NC(=O)CO)c1nc(C(F)(F)F)cc2c(-c3cccc([C@H](c4nncn4C)C4CCC4)c3)n[nH]c12 (single isomer, unassigned) [Example I1] | 0.8 | 1.9 | 29 | 163 | 16 | 182
16 | CC(NC(=O)CO)c1nc(C(F)(F)F)cc2c(-c3cccc([C@H](c4nncn4C)C4CCC4)c3)n[nH]c12 (single isomer, unassigned) [Example I2] | 7.8 | 64.5 |  |  | 313 | 2420
17 | C[C@H](O)C(=O)N[C@@H](C)c1nc(C(F)(F)F)cc2c(-c3cccc([C@H](c4nncn4C)C4CCC4)c3)n[nH]c12 (single isomer, unassigned) [Example I3] | 0.8 | 0.7 | 6 | 15 | 3 | 17
18 | CC(NC(=O)[C@H](C)O)c1nc(C(F)(F)F)cc2c(-c3cccc([C@H](c4nncn4C)C4CCC4)c3)n[nH]c12 (single isomer, unassigned) [Example I4] | 3.4 | 24.3 | 108 | 491 | 48 | 852
19 | CC(NC(=O)[C@@H](C)O)c1nc(C(F)(F)F)cc2c(-c3cccc([C@H](c4nncn4C)C4CCC4)c3)n[nH]c12 (single isomer, unassigned) [Example I5] | 2.7 | 22.9 | 62 | 299 |  | 
20 | C[C@H](N[C@@H]1CC[C@H](O)C1)c1nc(C(F)(F)F)cc2c(-c3cccc([C@H](c4nncn4C)C4CCC4)c3)n[nH]c12 [Example C49, (1S,3R)-3-({(1S)-1-[3-{3-[(R)-cyclobutyl(4-methyl-4H-1,2,4-triazol-3-yl)methyl]phenyl}-5-(trifluoromethyl)-1H-pyrazolo[3,4-c]pyridin-7-yl]ethyl}amino)cyclopentanol] | 2.1 | 20.9 |  |  | 8 | 135
21 | C[C@@H](N[C@@H]1CC[C@H](O)C1)c1nc(C(F)(F)F)cc2c(-c3cccc([C@H](c4nncn4C)C4CCC4)c3)n[nH]c12 [Example C118, (1S,3R)-3-({(1R)-1-[3-{3-[(R)-cyclobutyl(4-methyl-4H-1,2,4-triazol-3-yl)methyl]phenyl}-5-(trifluoromethyl)-1H-pyrazolo[3,4-c]pyridin-7-yl]ethyl}amino)cyclopentanol] | 2.1 | 25.5 | 46 | 338 |  | 
22 | CC(C)[C@H]1CN(C)CCN1Cc1nc(C(F)(F)F)cc2c(-c3cccc([C@H](c4nncn4C)C4CCC4)c3)n[nH]c12 [Example D32, 3-{3-[(R)-cyclobutyl(4-methyl-4H-1,2,4-triazol-3-yl)methyl]phenyl}-7-{[(2S)-4-methyl-2-(propan-2-yl)piperazin-1-yl]methyl}-5-(trifluoromethyl)-1H-pyrazolo[3,4-c]pyridine] | 1.3 | 10.2 | 12 | 134 | 8 | 175
23 | CC(C)[C@H]1CNCCN1Cc1nc(C(F)(F)F)cc2c(-c3cccc([C@H](c4nncn4C)C4CCC4)c3)n[nH]c12 [Example D36] | 1.4 | 16.4 | 52 | 454 |  | 
